Measurements from article PMC11070402, “New antiproliferative 3-substituted oxindoles inhibiting EGFR/VEGFR-2 and tubulin polymerization” (Molecular Diversity, 2023).
Where two headings read alike, the source gives them in different places.

Tests used:
[1] = tested on: MOLT-4; assay: NCI one-dose assay, MOLT-4; type: cell-based; settings: Homo sapiens; MOLT-4 (Leukemia), 10 uM single dose; read-out: Growth inhibition %
Protocol: (§1) All novel scaffolds 6a–j were carefully selected by the National Cancer Institute (NCI), Bethesda, USA, to elucidate their cytotoxic activity versus 60 human cancer cell lines at 10 µM as a single-dose concentration after a 48 h incubation period.
(§2) National Cancer Institution selected all the synthesized 6a–j (NCI), Bethesda, USA, for in vitro one-dose antitumor assay. The methodology protocol for the NCI anticancer screening was reported in detail elsewhere (http://www.dtp.nci.nih.gov). The anticancer assay was performed in full NCI 60 cell lines extracted from nine tumor cell lines, including leukemia, melanoma, lung, colon, CNS, ovarian, renal, prostate, and breast cancer cell lines.

[2] = tested on: UO-31; assay: NCI one-dose assay, UO-31; type: cell-based; settings: Homo sapiens; UO-31 (Renal Cancer), 10 uM single dose; read-out: Growth inhibition %
Protocol: as §1, §2

[3] = tested on: K-562; assay: NCI one-dose assay, K-562; type: cell-based; settings: Homo sapiens, K562; K-562 (Leukemia), 10 uM single dose; read-out: Growth inhibition %
Protocol: as §1, §2

[4] = tested on: MCF-7; assay: NCI one-dose assay, MCF-7; type: cell-based, human; settings: Homo sapiens, MCF7, MCF7 (Breast Cancer), 10 uM single dose; read-out: Growth inhibition %
Protocol: as §1, §2

[5] = tested on: 60 human cancer cell lines; assay: NCI one-dose assay against sixty NCI cancer cell lines; type: cell-based
Protocol: as §1, §2

[6] = tested on: LOX IMVI; assay: NCI one-dose assay, LOX IMVI; type: cell-based; settings: Homo sapiens; LOX IMVI (Melanoma), 10 uM single dose; read-out: Growth inhibition %
Protocol: as §1, §2

[7] = tested on: SNB-75 cells (CNS cancer cell line); assay: NCI one-dose assay, SNB-75; type: cell-based; settings: Homo sapiens
Protocol: as §1, §2

[8] = tested on: NCI/ADR-RES (ovarian cancer cell line); assay: NCI one-dose assay, NCI/ADR-RES; type: cell-based; settings: Homo sapiens; NCI/ADR-RES (Ovarian Cancer), 10 uM single dose; read-out: Growth inhibition %
Protocol: as §1, §2

[9] = tested on: SR; assay: NCI one-dose assay, SR; type: cell-based; settings: Homo sapiens; SR (Leukemia), 10 uM single dose; read-out: Growth inhibition %
Protocol: as §1, §2

[10] = tested on: T-47D; assay: NCI one-dose assay, T-47D; type: cell-based; settings: Homo sapiens, T47D; T-47D (Breast Cancer), 10 uM single dose; read-out: Growth inhibition %
Protocol: as §1, §2

[11] = tested on: HOP-92 (non-small cell lung cancer cell line); assay: NCI one-dose assay, HOP-92; type: cell-based; settings: Homo sapiens; HOP-92; 10 µM single dose, 48 h incubation; read-out: cell growth inhibition % (GI %)
Protocol: as §1, §2

[12] = ACHN (Renal Cancer), 10 uM single dose, read-out: Growth inhibition %
[13] = CAKI-1 (Renal Cancer), 10 uM single dose, read-out: Growth inhibition %
[14] = HCT-15 (Colon Cancer), 10 uM single dose, read-out: Growth inhibition %
[15] = HCT-116 (Colon Cancer), 10 uM single dose, read-out: Growth inhibition %
[16] = NCI-H226 (Non-Small Cell Lung Cancer), 10 uM single dose, read-out: Growth inhibition %
[17] = NCI-H322M (Non-Small Cell Lung Cancer), 10 uM single dose, read-out: Growth inhibition %
[18] = PC-3 (Prostate Cancer), 10 uM single dose, read-out: Growth inhibition %
[19] = UACC-62 (Melanoma), 10 uM single dose, read-out: Growth inhibition %
[20] = SNB-75 (CNS Cancer), 10 uM single dose, read-out: Growth inhibition %
[21] = HOP-62 (Non-Small Cell Lung Cancer), 10 uM single dose, read-out: Growth inhibition %
[22] = HS 578T (Breast Cancer), 10 uM single dose, read-out: Growth inhibition %
[23] = IGROV-1, IGROV1 (Ovarian Cancer), 10 uM single dose, read-out: Growth inhibition %
[24] = OVCAR-3 (Ovarian Cancer), 10 uM single dose, read-out: Growth inhibition %
[25] = SF-268 (CNS Cancer), 10 uM single dose, read-out: Growth inhibition %
[26] = BT-549 (Breast Cancer), 10 uM single dose, read-out: Growth inhibition %
[27] = CCRF-CEM (Leukemia), 10 uM single dose, read-out: Growth inhibition %
[28] = NCI-H522 (Non-Small Cell Lung Cancer), 10 uM single dose, read-out: Growth inhibition %
[29] = RPMI-8226 (Leukemia), 10 uM single dose, read-out: Growth inhibition %
[30] = M14 (Melanoma), 10 uM single dose, read-out: Growth inhibition %
[31] = SF-539 (CNS Cancer), 10 uM single dose, read-out: Growth inhibition %

Row | Compound | melting point [°C] | inhibition at 10 µM [1] [%] | inhibition at 10 µM [2] [%] | inhibition at 10 µM [3] [%] | inhibition at 10 µM [4] [%] | inhibition at 10 µM [5, 12] [%] | inhibition at 10 µM [5, 13] [%] | inhibition at 10 µM [5, 14] [%] | inhibition at 10 µM [5, 15] [%] | inhibition at 10 µM [5, 16] [%] | inhibition at 10 µM [5, 17] [%] | inhibition at 10 µM [5, 18] [%] | inhibition at 10 µM [5, 19] [%] | inhibition at 10 µM [6] [%] | inhibition at 10 µM [7, 20] [%] | inhibition at 10 µM [5, 22] [%] | inhibition at 10 µM [5, 24] [%] | inhibition at 10 µM [5, 25] [%] | inhibition at 10 µM [10] [%] | inhibition at 10 µM [5, 28] [%] | other results
1 | COc1ccc2c(c1)C(=Cc1ccc(OCC(=O)c3ccccc3)cc1)C(=O)N2 [Compound 6e, 5-Methoxy-3-{4-[2-oxo-2-phenylethoxy]benzylidene}indolin-2-one] | 196 to 198 | 11.6 | 29.6 | 19.5 | 20.2 | 11.2 | 19.8 | 10.3 | 12 | 11.6 | 12.4 | 14.8 | 24.7 | 19.5 |  |  |  |  |  |  | 
2 | O=C1Nc2ccc(Cl)cc2C1=Cc1ccc(OCC(=O)c2ccccc2)cc1 [Compound 6b, 5-Chloro-3-{4-[2-oxo-2 phenylethoxy]benzylidene}indolin-2-one] | 189 to 191 | 13.4 | 39.5 | 23.5 | 38 |  | 31.9 | 11.9 |  | 13.3 |  | 24.9 | 25.1 |  | 31.1 | 13.7 | 12.7 | 11.3 |  |  | inhibition at 10 µM [5, 21]: 14.6%; inhibition at 10 µM [5, 23]: 20.3%; inhibition at 10 µM ([5]; MDA-MB-231, read-out: Growth inhibition %): 15.5%; inhibition at 10 µM ([5]; SK-OV-3 (Ovarian Cancer), 10 uM single dose, read-out: Growth inhibition %): 11.9%
3 | O=C1Nc2ccccc2C1=Cc1ccc(OCC(=O)c2ccccc2)cc1 [Compound 6a, 3-{4-[2-Oxo-2-phenylethoxy]benzylidene}indolin-2-one] | 219 to 221 |  | 30.5 | 11.1 | 11.3 |  | 13.1 |  |  | 11 |  | 17.1 | 12.9 |  | 26.2 |  |  |  |  |  | inhibition at 10 µM [8]: 1.84%
4 | COc1ccc(C(=O)COc2ccc(C=C3C(=O)Nc4ccc(Cl)cc43)cc2)cc1 [Compound 6i, 5-Chloro-3-{4-[2-(4-methoxyphenyl)-2-oxoethoxy]benzylidene}indolin-2-one] | 183 to 185 | 21.8 | 38.1 | 25 | 22.1 |  | 22.7 |  | 10.4 | 17.4 |  | 29.6 | 20.1 | 12.3 | 37.6 |  | 10.8 |  | 23.9 | 16.1 | inhibition at 10 µM [9]: 21.2%; inhibition at 10 µM [8]: 13.1%; inhibition at 10 µM [11]: 62.1%; inhibition at 10 µM [5, 26]: 11.7%; inhibition at 10 µM [5, 27]: 12.5%; inhibition at 10 µM ([5]; OVCAR-8 (Ovarian Cancer), 10 uM single dose, read-out: Growth inhibition %): 10.6%; inhibition at 10 µM [5, 29]: 19.9%; inhibition at 10 µM ([5]; SK-MEL-2 (Melanoma), 10 uM single dose, read-out: Growth inhibition %): 22.2%
5 | O=C1Nc2cc(Cl)ccc2C1=Cc1ccc(OCC(=O)c2ccccc2)cc1 [Compound 6c, 6-Chloro-3-{4-[2-oxo-2-phenylethoxy]benzylidene}indolin-2-one] | 199 to 201 |  | 35 | 18 | 38.2 | 15.9 | 26.4 | 23.5 | 12.2 | 13.2 | 11.6 | 28.5 | 27.9 | 16.5 |  | 12.6 | 10.8 | 11.4 | 16.3 | 11.7 | inhibition at 10 µM ([7]; SNB-75, 10 µM single dose, 48 h incubation, read-out: cell growth inhibition % (GI %)): 41.2%; inhibition at 10 µM [5, 23]: 20.1%; inhibition at 10 µM [5, 30]: 11.1%; inhibition at 10 µM ([5]; RXF 393 (Renal Cancer), 10 uM single dose, read-out: Growth inhibition %): 16.4%; inhibition at 10 µM [5, 31]: 13.8%
6 | O=C1Nc2ccc(F)cc2/C1=C\c1ccc(OCC(=O)c2ccccc2)cc1 [Compound 6d, (E/Z)-5-Fluoro-3-{4-[2-oxo-2-phenylethoxy]benzylidene}indolin-2-one] | 223 to 226 | 32.2 | 32.3 | 33.6 | 23.1 |  | 28.3 | 11.7 | 14.3 | 10.3 | 11.2 | 23 | 30.6 | 17.7 | 33.7 | 14.8 |  | 14.6 | 14.3 | 12.4 | inhibition at 10 µM [9]: 25.2%; inhibition at 10 µM [5, 26]: 10.9%; inhibition at 10 µM [5, 27]: 15.6%; inhibition at 10 µM ([5]; EKVX (Non-Small Cell Lung Cancer), 10 uM single dose, read-out: Growth inhibition %): 18.9%; inhibition at 10 µM ([5]; HL-60(TB) (Leukemia), 10 uM single dose, read-out: Growth inhibition %): 16.9%; inhibition at 10 µM [5, 21]: 10.5%; inhibition at 10 µM ([5]; KM12 (Colon Cancer), 10 uM single dose, read-out: Growth inhibition %): 15.9%; inhibition at 10 µM [5, 30]: 12.1%; inhibition at 10 µM [5, 29]: 22.1%; inhibition at 10 µM [5, 31]: 14.3%; inhibition at 10 µM ([5]; SNB-19 (CNS Cancer), 10 uM single dose, read-out: Growth inhibition %): 14.9%; inhibition at 10 µM ([5]; U-251, U251 (CNS Cancer), 10 uM single dose, read-out: Growth inhibition %): 16.8%
